Where “and” joins values, the source holds several entries; their conditions need not be identical. Identical values can stand only once.
How the values were obtained:
Format in all cases: cell-based, soybean
[1] = test system: axillary meristem explants; test: Regeneration capacity of axillary meristem explants on shoot initiation medium with BAP or TDZ; conditions: three weeks on shoot induction medium
Experimental: Cultivar Jack was used in both growing conditions tested. For in vitro donor material, sterile seeds were sown in a Plantcon™ (SIGMA) containing ½ MS salts and 2% sucrose pH 5.7. Seedlings were maintained at 25° C. 16/8 hours (light/dark) photoperiod, at a light intensity between 40 to 70 μM m^−2 s^−1. For greenhouse donor plants, seeds were sown on Metromix™ and grown in the greenhouse at 25° C. and 16 hour photoperiod. Greenhouse tissues were excised from the plant after 3 weeks. For greenhouse materials, the tissues were surface sterilized by immersion on a solution containing 5% Tween 20, followed by immersion in 70% (v/v) ethanol for 2 min then washed for 10 min in 3.5% (v/v) sodium hypochlorite solution and finally rinsed 3 times in sterile water. For in vitro donor material, no further sterilization was needed. Axillary meristem explants were placed basipetal into shoot initiation medium containing full strength MS salts and B5 Gamborg's vitamins amended with either 5 μM BAP or 2 mg/L (9.1 μM) TDZ. […]

leaf explants [2] = test: Transient GUS expression on leaf explants after co-cultivation on CCM with thiol compounds (Example 8, experiment 2); conditions: for Entire: explant with GUS (+) foci: entire explant immersed; for Dip: explant with GUS (+) foci: petiole end dipped
Experimental: In both experiments, soybean cultivar (e.g., Jack) and the Agrobacterium tumefaciens strain AGL1 containing the binary plasmid pBPSEW008 (SEQ ID NO: 1) was used. The binary plasmid contains nosP-bar-nosT and pUBI-gusINT-nosT. The leaf explants and Agrobacterium were prepared as described earlier. The final Agrobacterium OD600 used for all experiments was 0.5. In the first experiment, two repetitions were made for which the following conditions were tested, • (1) addition of one of five thiol combinations added to CCM (no thiols, 100 mg/L L-cysteine (0.825 mM), 400 mg/L L-cysteine (3.3 mM), 1000 mg/L L-cysteine (8.25 mM), or 1 mM sodium thiolsulfate+1 mM DTT+ 1000 mg/L L-cysteine (8.25 mM)), • (2) 3, 4, or 5 day co-cultivation at 25° C., and • (3) incubation in the dark or under 100 μE/m2s cool white light under a 16 light/8 dark light regime. In the second experiment, explants were prepared and subjected to the above treatments except all leaf explants were co-cultivated for 5 days and either the entire ex-plant was immersed into the Agrobacterium/CCM suspension for 10 minutes or the cut petiole end of the explant dipped. Ten explants were entirely immersed per treatment and 4 explants were dipped per treatment. All explants were GUS-stained immediately after co-cultivation.

leaf explants [3] = test: Callus/shoot pad regeneration of leaf explants after co-cultivation on CCM with thiol compounds (Example 8, experiment 1); conditions: L-cysteine levels over 400 mg/L (3.3 mM) in CCM
Experimental: In both experiments, soybean cultivar (e.g., Jack) and the Agrobacterium tumefaciens strain AGL1 containing the binary plasmid pBPSEW008 (SEQ ID NO: 1) was used. The binary plasmid contains nosP-bar-nosT and pUBI-gusINT-nosT. The leaf explants and Agrobacterium were prepared as described earlier. The final Agrobacterium OD600 used for all experiments was 0.5. In the first experiment, two repetitions were made for which the following conditions were tested, • (1) addition of one of five thiol combinations added to CCM (no thiols, 100 mg/L L-cysteine (0.825 mM), 400 mg/L L-cysteine (3.3 mM), 1000 mg/L L-cysteine (8.25 mM), or 1 mM sodium thiolsulfate+1 mM DTT+ 1000 mg/L L-cysteine (8.25 mM)), • (2) 3, 4, or 5 day co-cultivation at 25° C., and • (3) incubation in the dark or under 100 μE/m2s cool white light under a 16 light/8 dark light regime. Ten explants were prepared for each treatment. The explants were grown on SIM medium for 2 weeks after which time the percent of explants developing a callus/shoot pad were recorded.

[4] = test system: propagated axillary meristems (cultivar Jack); test: GUS expression on propagated axillary meristem explants co-cultivated with L-cysteine; conditions: for frequency of propagated axillary meristems showing GUS(+) foci, Day3: AGL1
Experimental: Explant preparation: Seeds of variety Jack were surface sterilized by exposure to 70% ethanol for 6 min then immersed in a solution that contained 25% commercial bleach (NaOCl) and 0.1% Tween 20 and stirred at 200 rpm for 20 min. Seeds were rinsed 4 times in sterile water. Germination was carried out for 7 day in the dark at 25° C. The root and half of both cotyledons were removed from the seven-day-old seedlings and imbedded into propagation media on 150×20 mm Petri plates. Plates were sealed with Parafilm™ and placed in a culture room at 25° C. in the light for 2 to 5 weeks.
A. tumefaciens preparation and explant inoculation: A. tumefaciens strain AGL1 carrying the binary vector pBPSMM192b [LB-pSuper-gusINT-NOSt::AtAhast-AtAhas-pAtAhas-RB] (SEQ ID NO: 2) was used. A single colony was used to inoculate 25 to 30 ml LB media containing the appropriate antibiotics. Flasks were shaken on an orbit shaker (220 rpm) at 28° C. for 24 to 36 hours the OD600 reached 0.8 to 1.0. The Agrobacterium was pelleted by centrifugation at 3500 rpm for 8 to 10 min. The bacterial cells were re-suspended in liquid co-cultivation media containing 200 μM acetosyringone. Once cut, the propagated axillary meristem explants were immediately immersed in the A. tumefaciens suspension and remained for 30 minutes. Infected tissues were then transferred either to a vacuum chamber (25-30 mm Hg) for 5 min or placed directly on co-cultivation media. Before transferring onto cultivation medium, explants were blotted dry on sterile filter paper. The treatment tested was the addition of 0, 400, or 800 mg/L L-cysteine into the solid co-cultivation media (0, 3.3, or 6.6 mM, respectively). Co-cultivation was carried out in the dark for 3 days at 25° C. Vacuum infiltration results in an increase of transformation efficiency in protocols which were performed without cysteine-supplementation, but has no significant effect on protocols which were performed with cysteine-supplementation. GUS histochemical assay: Propagated axillary meristem explants infected with A. tumefaciens strain AGL1 were removed from the co-cultivation media after 3 days and stained with Gus overnight at 37° C. Remaining explants were transfer to shoot induction media containing 500 mg/L Timentin™. Gus histochemical assays were also performed at 10 and 45 days after inoculation. Results: After 3 days co-cultivation, the frequency of explants with GUS^+ foci increased from 2.5% to 45 and 63% by the addition of 800 (6.6 mM) or 400 mg/L (3.3 mM) L-cysteine, respectively, into the solid co-cultivation medium. […] The increases in GUS staining were also seen 10 and 45 days after co-cultivation (Table 10).

[5] = test system: explants from the cultivar L00106CN; test: GUS (+) foci on explants infected with AGL1 carrying three binary vectors, with L-cysteine; conditions: 400 mg/L (3.3 mM) L-cysteine, AGL1, 10 days post-infection
Excerpt: Seed germination, propagation, A. tumefaciens and axillary meristem explant preparation, and inoculations were done as previously described. In the first experiment, three A. tumefaciens strains, MP90, LBA4404 and AGL1, containing the binary vector pBPSMM192b (SEQ ID NO: 2) were compared. The infected propagated axillary meristems with the 3 A. tumefaciens strains were removed from the co-cultivation media after 3 days and GUS stained 10 days after inoculation.
In a separate experiment, GUS expression was evaluated on explants from the cultivar L00106CN 10-days after infection with the Agrobacterium strain AGL1 containing the binary vectors pBPSLM003 [LB-OCSt-bar-pMAS::pSuper-gusINT-NOSt-RB] (SEQ ID NO: 3), pBPSMM192a [LB-NOSt-gusINT-pSuper::AtAhast-AtAhas-pAtAhas-RB], or pBPSMM192b [LB-pSuper-gusINT-NOSt::AtAhast-AtAhas-pAtAhas-RB] (SEQ ID NO: 2). The backbone sequence of pBPSLM003 (SEQ ID NO: 3) is different of that in pBPSMM192a and b (SEQ ID NO: 2). The vector pBPSMM192a [LB-NOSt-gusINT-pSuper::AtAhast-AtAhas-pAtAhas-RB is distinguished from the vector pBPSMM192b (SEQ ID NO: 2) by the orientation of the pSuper-gusINT-NOSt expression cassette, which is in reverse orientation.
Explants were also evaluated for GUS expression on explants that had been co-cultivated with or without 400 mg/L (3.3 mM) L-cysteine in the solid co-cultivation medium. Twenty explants of each treatment were prepared for each repetition, a total of 2 repetitions in this experiment. GUS expression was scored 10-days-post initial infection.

[6] = 100 mg/l Cys in CCM, Light, 5 days co-cultivation

c1ccc(CNc2ncnc3nc[nH]c23)cc1 [BAP, 6-benzylaminopurine] was tested, and the “Mean # of shoots per explant” value ([1]; Greenhouse plant, BAP 5 uM) was 0.20 and the “Mean # of shoots per explant” value ([1]; In vitro plant, BAP 5 uM) was 1.97.

In the case of N[C@@H](CS)C(=O)O [L-cysteine], the “Entire: explant with GUS (+) foci” value (leaf explants [2]; [6]) was 6/10, the “Dip: explant with GUS (+) foci” value (leaf explants [2]; [6]) was 0/4 and the “Entire: explant with GUS (+) foci” value (leaf explants [2]; 100 mg/l Cys, Dark) was 7/10. The “Dip: explant with GUS (+) foci” value (leaf explants [2]; 100 mg/l Cys, Dark) was 0/4, the “Entire: explant with GUS (+) foci” value (leaf explants [2]; 400 mg/l Cys, Dark) was 9/10 and the “Dip: explant with GUS (+) foci” value (leaf explants [2]; 400 mg/l Cys, Dark) was 3/4. For the same molecule, the “Entire: explant with GUS (+) foci” value (leaf explants [2]; 400 mg/l Cys, Light) was 9/10, the “Dip: explant with GUS (+) foci” value (leaf explants [2]; 400 mg/l Cys, Light) was 1/4 and the “effect on explant tissue” value (leaf explants [2]; 1000 mg/L L-cysteine in CCM) was “significant bleaching”. For the same molecule, the “Entire: explant with GUS (+) foci” value (leaf explants [2]; 1000 mg/l Cys, Dark) was 3/10, the “Dip: explant with GUS (+) foci” value (leaf explants [2]; 1000 mg/l Cys, Dark) was 0/4 and the “Entire: explant with GUS (+) foci” value (leaf explants [2]; 1000 mg/l Cys, Light) was 3/10. For the same molecule, the “Dip: explant with GUS (+) foci” value (leaf explants [2]; 1000 mg/l Cys, Light) was 1/4, the “effect on explant tissue” value (leaf explants [3]) was “tissue death” and the “frequency of propagated axillary meristems showing GUS(+) foci, Day 10” value ([4]; 400 mg/L L-cysteine) was 90.0%. The “frequency of propagated axillary meristems showing GUS(+) foci, Day 45” value ([4]; 400 mg/L L-cysteine) was 22.5%, the “frequency of propagated axillary meristems showing GUS(+) foci, Day3” value ([4]; 400 mg/L L-cysteine in solid co-cultivation medium) was 63% and 65.0% and the “frequency of propagated axillary meristems showing GUS(+) foci, Day 10” value ([4]; 800 mg/L L-cysteine) was 72.5%. The “frequency of propagated axillary meristems showing GUS(+) foci, Day 45” value ([4]; 800 mg/L L-cysteine) was 7.5%, the “frequency of propagated axillary meristems showing GUS(+) foci, Day3” value ([4]; 800 mg/L L-cysteine in solid co-cultivation medium) was 45% and 47.5% and the “browning and tissue necrosis of explants” value ([4]; compared with explants not exposed to L-cysteine) was “less browning and tissue necrosis”. The “frequency of GUS (+) foci on explants, pBPSLM003” value [5] was 85%, the “frequency of GUS (+) foci on explants, pBPSMM192a” value [5] was 77% and the “frequency of GUS (+) foci on explants, pBPSMM192b” value [5] was 95%.

For O=C(Nc1ccccc1)Nc1cnns1 [TDZ], the “Mean # of shoots per explant” value ([1]; Greenhouse plant, TDZ 9.1 μM) was 0.32 and the “Mean # of shoots per explant” value ([1]; In vitro plant, TDZ 9.1 μM) was 0.74.

— US8541653B2, “Transformation of soybean” (BASF Plant Science GmbH, priority 2004, dated 2013)
